Counter-ions that a name gives are not always drawn. Bounds are passed on as bounds.

For one experiment, the system named is SCG neurons. The experiment is described as follows: cells. In kind it is cell-based, Sprague Dawley rats. The settings on record: Rattus norvegicus, Neuron, 48 h, read-out: IC(50), protection of SCG neurons from Taxol killing. The protocol: Taxol™ is regularly used in breast cancer chemotherapy. In cancer cells Taxol™ binds to the cyto-skeletal protein tubulin, thereby inhibiting normal microtubular assembly and inducing cellular apoptosis. Despite its potency as an anti-tumour agent, Taxol™ is also toxic to neurons, inducing dose limiting peripheral neuropathies. The addition of Taxol™ (100 ng/mL) to cultured SCG neurons induces the degradation or loss of upwards of 80% of the neurons.
FIG. 1 illustrates the protection provided by compound 1 (referred to here as AEG3482) against Taxol™ induced killing. PI Sprague Dawley rat SCG neurons were cultured and incubated with NGF (50 ng/mL) for 5 days.
As to `NS(=O)(=O)c1nn2cc(-c3cc4ccc5cccc6ccc(c3)c4c56)nc2s1` [Compound 64, 6-pyrenylimidazo[2,1-b]-1,3,4-thiadiazole-2-sulfonamide], the IC50 is 10 µM.

Turning to `CC1(C)CCC(C)(C)c2cc(-c3cn4nc(S(N)(=O)=O)sc4n3)ccc21` [Compound 56, 6-(5,5,8,8-Tetramethyl-5,6,7,8-tetrahydronaphthalen-2-yl)imidazo[2,1-b]-1,3,4-thiadiazole-2-sulfonamide], the IC50 is 3 µM.

The experiment is the same for the next values; noted with them: Rattus norvegicus, Neuron; Taxol™ (50 ng/mL), viability 48 hours later, MTS; read-out: IC(50), protection of SCG neurons from Taxol killing.
`NS(=O)(=O)c1nn2cc(-c3ccc(-c4c(F)c(F)c(F)c(F)c4F)cc3)nc2s1` [Compound 73, 6-(4-(2,3,4,5,6-tetrafluorophenyl)phenyl)imidazo[2,1-b]-1,3,4-thiadiazole-2-sulfonamide]: the IC50 was 2 µM.

For the compound `NS(=O)(=O)c1nn2c(Br)c(-c3ccc(Br)cc3)nc2s1` [Compound 128, 5-Bromo-6-(4-bromophenyl)imidazo[2,1-b]-1,3,4-thiadiazole-2-sulfonamide hydrobromide], the IC50 was 2 µM.

As for `NS(=O)(=O)c1nn2c(Br)c(-c3ccc4ccccc4c3)nc2s1` [Compound 130, 5-Bromo-6-(2-naphthyl)imidazo[2,1-b]-1,3,4-thiadiazole-2-sulfonamide hydrobromide], the IC50 came out at 2 µM.

`Cc1nc(C)c(-c2cn3nc(S(N)(=O)=O)sc3n2)s1` [Compound 122, 6-(2,4-Thiaxol-5-yl)imidazo[2,1-b]-1,3,4-thiadiazole-2-sulfonamide]: the IC50 was 8 µM.

For the compound `NS(=O)(=O)c1nn2cc(-c3cc(-c4ccccc4)no3)nc2s1` [Compound 117, 6-(3-Phenylisoxazol-5-yl)imidazo[2,1-b]-1,3,4-thiadiazole-2-sulfonamide], the IC50 came out at 3 µM.

Take `NS(=O)(=O)c1nn2cc(-c3csc4ccccc34)nc2s1` [Compound 116, 6-(Benzo[b]thiophen-3-yl)imidazo[2,1-b]-1,3,4-thiadiazole-2-sulfonamide]: the IC50 came out at 7 µM.

For the compound `NS(=O)(=O)c1nn2c(Br)c(-c3ccc(-c4ccccc4)cc3)nc2s1` [Compound 132, 5-Bromo-6-(biphenyl)imidazo[2,1-b]-1,3,4-thiadiazole-2-sulfonamide hydrobromide], the IC50 worked out at 1 µM.

On to `Cc1ccc(-c2nc3sc(S(N)(=O)=O)nn3c2C)cc1Cl` [Compound 104, 6-(3-chloro-4-methylphenyl)-5-methylimidazo[2,1-b]-1,3,4-thiadiazole-2-sulfonamide], for which the IC50 was 7 µM.

As to `NS(=O)(=O)c1nn2c(Cl)c(-c3ccccc3)nc2s1` [Compound 123, 5-Chloro-6-phenyl-imidazo[2,1-b]-1,3,4-thiadiazole-sulfonamide], the IC50 is above 30 µM.

In the case of `COC(=O)COc1ccc(-c2nc3sc(S(N)(=O)=O)nn3c2C)cc1` [Compound 103], the IC50 was above 30 µM.

Take `COc1cccc(-c2nc3sc(S(N)(=O)=O)nn3c2Br)c1Br` [Compound 129, 5-Bromo-6-(2-bromo3-methoxyphenyl)imidazo[2,1-b]-1,3,4-thiadiazole-2-sulfonamide hydrobromide]: the IC50 was determined as 7 µM.

As for `NS(=O)(=O)c1nn2cc(-c3ccc4ccccc4c3)nc2s1` [Compound 62, 6-(2-Naphthyl)imidazo[2,1-b]-1,3,4-thiadiazole-2-sulfonamide], the IC50 stood at 15 µM.

In the case of `NS(=O)(=O)c1nn2cc(-c3ccc(OCCOCc4ccccc4)cc3)nc2s1` [Compound 31, 6-(4′-(2-Benzyloxyethoxy)phenyl)-imidazo[2,1-b]-1,3,4-thidiazole-2 sulfonamide], the IC50 stood at 10 µM.

As to `CC(C)(C)c1cc(-c2cn3nc(S(N)(=O)=O)sc3n2)cc(C(C)(C)C)c1O` [Compound 55, 6-(3,4-Di-tert-butyl-4-hydroxyphenyl)imidazo[2,1-b]-1,3,4-thiadiazole-2-sulfonamide], the IC50 was 15 µM.

Regarding `NS(=O)(=O)c1nn2cc(-c3ccc([N+](=O)[O-])cc3)nc2s1` [Compound 153, 6-(4-Nitrophenyl)imidazo[2,1-b]-1,3,4-thiadiazole-2-sulfonamide], the IC50 was determined as 5 µM.

As to `CNS(=O)(=O)c1nn2cc(-c3c(F)c(F)c(F)c(F)c3F)nc2s1` [Compound 138, 6-(2,3,4,5,6-pentafluorophenyl)imidazo[2,1-b]-1,3,4-thiadiazole-2-N-methylsulfonamide], the IC50 worked out at 2 µM.

For `NS(=O)(=O)c1nn2cc(C(F)(F)F)nc2s1` [Compound 59], the IC50 turned out to be 10 µM.

Regarding `NS(=O)(=O)c1nn2cc(-c3ccc(B(O)O)cc3)nc2s1` [Compound 71], the IC50 was above 30 µM.

For the compound `[N-]=[N+]=Nc1c(F)c(F)c(-c2cn3nc(S(N)(=O)=O)sc3n2)c(F)c1F` [Compound 151, 6-(4-Azido-2,3,5,6-tetraflourophenyl)imidazo[2,1-b]-1,3,4-thiadiazole-2-sulfonamide], the IC50 was determined as 2 µM.

Consider `NS(=O)(=O)c1nn2cc(-c3cc(C(F)(F)F)cc(C(F)(F)F)c3)nc2s1` [Compound 54, 6-(3,5-di(trifluoromethyl)phenyl)imidazo[2,1-b]-1,3,4-thiadiazole-2-sulfonamide], for which the IC50 amounted to 10 µM.

Consider `NS(=O)(=O)c1nn2c(Br)c(C(F)(F)F)nc2s1` [Compound 134, 5-Bromo-6-trifluoromethylimidazo[2,1-b]-1,3,4-thiadiazole-2-sulfonamide], for which the IC50 was 1 µM.

`NS(=O)(=O)c1nn2cc(-c3ccc(C(F)(F)F)cc3)nc2s1` [Compound 52, 6-(4-(Trifluoromethyl)phenyl)imidazo[2,1-b]-1,3,4-thiadiazole-2-sulfonamide]: the IC50 stood at 3 µM.

In the case of `CN(C)S(=O)(=O)c1nn2c(Br)c(-c3ccc(Br)cc3)nc2s1` [Compound 144, hydrobromide], the IC50 was determined as 15 µM.

Take `Cc1ccc(C23CC4CC(CC(C4)C2)C3)cc1-c1cn2nc(S(N)(=O)=O)sc2n1` [Compound 51]: the IC50 was 5 µM.

For the compound `Cc1c(-c2ccccc2)nc2sc(S(N)(=O)=O)nn12` [Compound 65, 5-Methyl-6-phenyl-imidazo[2,1-b]-1,3,4-thiadiazole-2-sulfonamide], the IC50 amounted to 15 µM.

As for `CN(C)S(=O)(=O)c1nn2cc(-c3cccc(O)c3)nc2s1` [Compound 145], the IC50 is 20 µM.

Regarding `NS(=O)(=O)c1nn2c(-c3ccccc3)c(-c3ccccc3)nc2s1` [Compound 66, 5,6-Diphenyl-imidazo[2,1-b]-1,3,4-thiadiazole-2-sulfonamide], the IC50 was determined as 20 µM.

On to `NS(=O)(=O)c1nn2cc(-c3ccc(OCC(=O)O)cc3)nc2s1` [Compound 102], for which the IC50 is above 30 µM.

`CN(C)S(=O)(=O)c1nn2cc(-c3cccc(OC(=O)c4ccccc4)c3)nc2s1` [Compound 146, 6-(3-Benzoyloxyphenyl)imidazo[2,1-b]-1,3,4-thiadiazole-2-N,N-dimethylsulfonamide]: the IC50 worked out at 20 µM.

`NS(=O)(=O)c1nn2c(Sc3ccccc3)c(-c3ccc4ccccc4c3)nc2s1` [Compound 135, 5-Thiophenyl-6-(2-naphthyl)imidazo[2,1-b]-1,3,4-thiadiazole-2-sulfonamide]: the IC50 amounted to 7 µM.

The experiment is the same for the next values; noted with them: concentrations as high as 50 μM.
Turning to `CCN[C@H]1C[C@H](C)S(=O)(=O)c2sc(S(N)(=O)=O)cc21` [Dorzolamide, reference compound], the “inhibition of Taxol™ induced killing of SCGs” value is on record as “failed to significantly inhibit”.

Take `CC(=O)/N=c1/sc(S(N)(=O)=O)nn1C` [methazolamide, reference compound]: the “inhibition of Taxol™ induced killing of SCGs” value was “failed to significantly inhibit”.

Values taken from US7772260B2, “Imidazo[2,1-b]-1,3,4-thiadiazole sulfonamides” (Aegera Therapeutics Inc., priority 2001, dated 2010).
